According to US20140163099A1, “ANTIMICROBIAL COMPOSITION” (TAKASAGO INTERNATIONAL CORPORATION, priority 2011, published 2014):

What was measured:
Format in all cases: cell-based
[1] = system: Proteus vulgaris (NBRC3167); assay: Growth inhibition activity (MIC, agar) against aerobic bacteria; details: strain NBRC3167; Mueller Hinton Agar, 37 degrees C. overnight
Description: (§1) In the present invention, the growth inhibition activity, which is an indicator of the antimicrobial activity, is evaluated by determining the Minimum Inhibitory Concentration (MIC) with an agar or liquid medium.
(§2) Furthermore, the following bacteria were also used as other general aerobic bacteria: • Escherichia coli: Escherichia coli (NBRC3972) • Pseudomonas aeruginosa: Pseudomonas aeruginosa (NBRC13275) • Bacteria in intestines: Proteus vulgaris (NBRC3167) • Pneumobacillus: Klebsiella pneumoniae (NBRC13277) • Bacillus subtilis: Bacillus subtilis (NBRC3134)
(§3) The test strains were cultured in the liquid medium which the Bioresource center recommends, and then the test strains were subcultured to a Mueller Hinton Broth (Difco) at 30 degrees C. The grown bacteria were diluted to 10^6 CFU/ml with saline to adjust the bacteria fluids for inoculation.
(§4) Furthermore, in order to examine the growth inhibition activities against the bacteria by the above cooling agents, the concentration of the cooling agents: (3S)-CA20, (3R)-CA20, CA1, CA5, CA15, CA55 or CA MGH was diluted with ethanol to the required level of concentration for the determining the Minimum Inhibitory Concentration to produce the sample liquids.
(§5) Next, 100 μL of each sample liquid was added to 10 mL of a Mueller Hinton Agar (Difco) agar medium solution in a soluble state, and each agar medium solution was poured into a petri dish and solidified to prepare test plates having several concentrations of the sample liquids (several concentrations of the above cooling agents). Subsequently, 5 μL of the above bacteria fluids for inoculation were stamped on the test plates, and then the test plates were cultured at 37 degrees C. overnight.
(§6) In this way, the growth inhibition activities by (3S)-CA20, (3R)-CA20, CA1, CA5, CA15, CA55, CA MGH were examined. The minimum concentration of the cooling agent in which the growth of bacteria could not be confirmed was considered as the MIC (Minimum Inhibitory Concentration).
(§7) The minimum concentration of the cooling agent in which the grown strain could not be confirmed was considered as the MIC (Minimum Inhibitory Concentration).

[2] = system: Pseudomonas aeruginosa (NBRC13275); assay: as above; details: strain NBRC13275; Mueller Hinton Agar, 37 degrees C. overnight
Description: as §1, §2, §3, §4, §5, §6, §7

[3] = system: Bacillus subtilis (NBRC3134); assay: as above; details: strain NBRC3134; Mueller Hinton Agar, 37 degrees C. overnight
Description: as §1, §2, §3, §4, §5, §6, §7

[4] = system: Escherichia coli (NBRC3972); assay: as above; details: strain NBRC3972; Mueller Hinton Agar, 37 degrees C. overnight
Description: as §1, §2, §3, §4, §5, §6, §7

[5] = system: Klebsiella pneumoniae (NBRC13277); assay: as above; details: strain NBRC13277; Mueller Hinton Agar, 37 degrees C. overnight
Description: as §1, §2, §3, §4, §5, §6, §7

[6] = system: Staphylococcus epidermidis (JCM2414T); assay: as above; details: strain JCM2414T; Mueller Hinton Agar, 37 degrees C. overnight
Description: as §1
(§8) In the test for the growth inhibition activity, the following strains were used as skin-related bacteria: • Staphylococcus epidermidis: Staphylococcus epidermidis (JCM2414T and ATCC 12228) • Staphylococcus aureus: Staphylococcus aureus (NBRC12732 and JCM2151) • Skin indigenous bacteria which introduce a superficial infection: Corynebacterium minutissimum (NBRC15361T) • Armpit odor-causing bacteria: Corynebacterium xerosis (JCM1324)
as §3, §4, §5, §6, §7

[7] = system: Corynebacterium minutissimum (NBRC15361T); assay: as above; details: strain NBRC15361T; Mueller Hinton Agar, 37 degrees C. overnight
Description: as §1, §8, §3, §4, §5, §6, §7

[8] = system: Staphylococcus aureus (JCM2151); assay: as above; details: strain JCM2151; Mueller Hinton Agar, 37 degrees C. overnight
Description: as §1, §8, §3, §4, §5, §6, §7

[9] = system: Staphylococcus aureus (NBRC12732); assay: as above; details: strain NBRC12732; Mueller Hinton Agar, 37 degrees C. overnight
Description: as §1, §8, §3, §4, §5, §6, §7

[10] = system: Corynebacterium xerosis (JCM1324); assay: as above; details: strain JCM1324; Mueller Hinton Agar, 37 degrees C. overnight
Description: as §1, §8, §3, §4, §5, §6, §7

[11] = system: Streptococcus mutans (JCM5175); assay: Growth inhibition activity (MIC, agar) against anaerobic bacteria; details: strain JCM5175; Trypticase Soy Broth agar, 37 degrees C. for 3 days
Description: as §1
(§9) In the test for growth inhibition activity, the following strains were used: • Acne bacteria: Propionibacterium acnes (JCM6473) and (ATCC6919) • Abscess bacteria: Bacteroides fragilis (GAI5560) • Cavity-causing bacteria: Streptococcus mutans (JCM5175), Actinomyces naeslundii (JCM8350) and Actinomyces viscosus (JCM8352) • Periodontal pathogen: Fusobacterium nucleatum (JCM6328), Porphyromonas gingivalis (JCM8525), Prevotella nigrescens (JCM6322)
(§10) The test strains were cultured in a GAM medium (Nissui Pharmaceutical Co., LTD), a Schaedler Broth (BBL) or a Trypticase Soy Broth (BBL) liquid medium, and then the grown bacteria were diluted in saline to prepare turbidity 0.5 McFarland of the bacteria fluids for inoculation. The bacteria were cultured at 37 degrees C. for 3 days under an anaerobic condition by using AnaeroPack® from MGC.
as §4, with “cooling agent,” for “cooling agents,”, “of concentrations” for “of concentration”
(§11) Next, 100 μL of each sample liquid was added to 10 mL of a Trypticase Soy Broth agar medium solution in a soluble state, and each agar medium solution was poured into a petri dish and solidified, to prepare the test plates. Subsequently, 5 μL of above the bacteria fluids for inoculation were stamped on the test plates, and then the test plates were cultured at 37 degrees C. for 3 days.
(§12) The minimum concentration of the cooling agent in which the growth of bacteria could not be confirmed was considered as the MIC (Minimum Inhibitory Concentration).
as §12

[12] = system: Bacteroides fragilis (GAI5560); assay: as above; details: strain GAI5560; Trypticase Soy Broth agar, 37 degrees C. for 3 days
Description: as §1, §9, §10
as §4, with “cooling agent,” for “cooling agents,”, “of concentrations” for “of concentration”
as §11, §12, §12

[13] = system: Propionibacterium acnes (JCM6473); assay: as above; details: strain JCM6473; Trypticase Soy Broth agar, 37 degrees C. for 3 days
Description: as §1, §9, §10
as §4, with “cooling agent,” for “cooling agents,”, “of concentrations” for “of concentration”
as §11, §12, §12

[14] = system: Prevotella nigrescens (JCM6322); assay: as above; details: strain JCM6322; Trypticase Soy Broth agar, 37 degrees C. for 3 days
Description: as §1, §9, §10
as §4, with “cooling agent,” for “cooling agents,”, “of concentrations” for “of concentration”
as §11, §12, §12

[15] = system: Actinomyces viscosus (JCM8352); assay: as above; details: strain JCM8352; Trypticase Soy Broth agar, 37 degrees C. for 3 days
Description: as §1, §9, §10
as §4, with “cooling agent,” for “cooling agents,”, “of concentrations” for “of concentration”
as §11, §12, §12

[16] = system: Porphyromonas gingivalis (JCM8525); assay: as above; details: strain JCM8525; Trypticase Soy Broth agar, 37 degrees C. for 3 days
Description: as §1, §9, §10
as §4, with “cooling agent,” for “cooling agents,”, “of concentrations” for “of concentration”
as §11, §12, §12

[17] = system: Actinomyces naeslundii (JCM8350); assay: as above; details: strain JCM8350; Trypticase Soy Broth agar, 37 degrees C. for 3 days
Description: as §1, §9, §10
as §4, with “cooling agent,” for “cooling agents,”, “of concentrations” for “of concentration”
as §11, §12, §12

[18] = system: Propionibacterium acnes (ATCC6919); assay: as above; details: strain ATCC6919; Trypticase Soy Broth agar, 37 degrees C. for 3 days
Description: as §1, §9, §10
as §4, with “cooling agent,” for “cooling agents,”, “of concentrations” for “of concentration”
as §11, §12, §12

**Q.** For `CC(O)CC(=O)OC1CC(C)CCC1C(C)C` [(3R)-CA20, menthyl 3-hydroxybutanoate], which “MIC (Minimum Inhibitory Concentration)” value [1] is on record?
**A.** >1600 ppm

**Q.** What about the “MIC (Minimum Inhibitory Concentration)” value [2] of the same molecule?
**A.** >1600 ppm

**Q.** And the “MIC (Minimum Inhibitory Concentration)” value [3]?
**A.** 200 ppm

**Q.** What about the “MIC (Minimum Inhibitory Concentration)” value [4] of the same molecule?
**A.** >1600 ppm

**Q.** What about the “MIC (Minimum Inhibitory Concentration)” value [5] of the same molecule?
**A.** 200 ppm

**Q.** And the “MIC (Minimum Inhibitory Concentration)” value [6]?
**A.** 200 ppm

**Q.** And the “MIC (Minimum Inhibitory Concentration)” value [7]?
**A.** 200 ppm

**Q.** What about the “MIC (Minimum Inhibitory Concentration)” value [8] of the same molecule?
**A.** 100 ppm

**Q.** What about the “MIC (Minimum Inhibitory Concentration)” value [9] of the same molecule?
**A.** 200 ppm

**Q.** And the “MIC (Minimum Inhibitory Concentration)” value [10]?
**A.** 100 ppm

**Q.** What about the “MIC (Minimum Inhibitory Concentration)” value [11] of the same molecule?
**A.** 200 ppm

**Q.** What about the “MIC (Minimum Inhibitory Concentration)” value [12] of the same molecule?
**A.** 100 ppm

**Q.** What about the “MIC (Minimum Inhibitory Concentration)” value [13] of the same molecule?
**A.** 200 ppm

**Q.** And the “MIC (Minimum Inhibitory Concentration)” value [14]?
**A.** 200 ppm

**Q.** What about the “MIC (Minimum Inhibitory Concentration)” value [15] of the same molecule?
**A.** 100 ppm

**Q.** What about the “MIC (Minimum Inhibitory Concentration)” value [16] of the same molecule?
**A.** 100 ppm

**Q.** What about the “MIC (Minimum Inhibitory Concentration)” value [17] of the same molecule?
**A.** 200 ppm

**Q.** What about the “MIC (Minimum Inhibitory Concentration)” value [18] of the same molecule?
**A.** 400 ppm

**Q.** “N-alkyl-p-menthane-3-carboxamide [WS-3, reference compound]” was tested. Which “MIC (Minimum Inhibitory Concentration)” value [1] did it give?
**A.** >1600 ppm

**Q.** What about the “MIC (Minimum Inhibitory Concentration)” value [2] of the same molecule?
**A.** >1600 ppm

**Q.** What about the “MIC (Minimum Inhibitory Concentration)” value [3] of the same molecule?
**A.** >1600 ppm

**Q.** What about the “MIC (Minimum Inhibitory Concentration)” value [4] of the same molecule?
**A.** >1600 ppm

**Q.** What about the “MIC (Minimum Inhibitory Concentration)” value [5] of the same molecule?
**A.** >1600 ppm

**Q.** And the “MIC (Minimum Inhibitory Concentration)” value [6]?
**A.** >1600 ppm

**Q.** And the “MIC (Minimum Inhibitory Concentration)” value [7]?
**A.** >1600 ppm

**Q.** What about the “MIC (Minimum Inhibitory Concentration)” value [8] of the same molecule?
**A.** >1600 ppm

**Q.** What about the “MIC (Minimum Inhibitory Concentration)” value [9] of the same molecule?
**A.** >1600 ppm

**Q.** And the “MIC (Minimum Inhibitory Concentration)” value [10]?
**A.** >1600 ppm

**Q.** And the “MIC (Minimum Inhibitory Concentration)” value [11]?
**A.** >1600 ppm

**Q.** And the “MIC (Minimum Inhibitory Concentration)” value [12]?
**A.** >1600 ppm

**Q.** What about the “MIC (Minimum Inhibitory Concentration)” value [13] of the same molecule?
**A.** >1600 ppm

**Q.** What about the “MIC (Minimum Inhibitory Concentration)” value [14] of the same molecule?
**A.** >1600 ppm

**Q.** What about the “MIC (Minimum Inhibitory Concentration)” value [15] of the same molecule?
**A.** >1600 ppm

**Q.** And the “MIC (Minimum Inhibitory Concentration)” value [16]?
**A.** 200 ppm

**Q.** And the “MIC (Minimum Inhibitory Concentration)” value [17]?
**A.** >1600 ppm

**Q.** And the “MIC (Minimum Inhibitory Concentration)” value [18]?
**A.** >1600 ppm
